Results published in ChEMBL document CHEMBL1149076, “Sulfamides as novel histone deacetylase inhibitors” (Bioorg Med Chem Lett, 2009).
Active and inactive are the calls of the source. No cut-off for these calls is given here.

Columns and labels:
[1] = target: Histone deacetylase 2 (Homo sapiens) (UniProt Q92769); test: Inhibition of human recombinant C-terminal FLAG-tagged HDAC2 expressed in baculovirus by fluorimetry
[2] = target: T1, Protein deacetylase HDAC6 (Homo sapiens, UniProt Q9UBN7); test: Inhibition of human recombinant N-terminal histidine-tagged HDAC6 expressed in baculovirus by fluorimetry
T1 sequence (Q9UBN7 whole entry): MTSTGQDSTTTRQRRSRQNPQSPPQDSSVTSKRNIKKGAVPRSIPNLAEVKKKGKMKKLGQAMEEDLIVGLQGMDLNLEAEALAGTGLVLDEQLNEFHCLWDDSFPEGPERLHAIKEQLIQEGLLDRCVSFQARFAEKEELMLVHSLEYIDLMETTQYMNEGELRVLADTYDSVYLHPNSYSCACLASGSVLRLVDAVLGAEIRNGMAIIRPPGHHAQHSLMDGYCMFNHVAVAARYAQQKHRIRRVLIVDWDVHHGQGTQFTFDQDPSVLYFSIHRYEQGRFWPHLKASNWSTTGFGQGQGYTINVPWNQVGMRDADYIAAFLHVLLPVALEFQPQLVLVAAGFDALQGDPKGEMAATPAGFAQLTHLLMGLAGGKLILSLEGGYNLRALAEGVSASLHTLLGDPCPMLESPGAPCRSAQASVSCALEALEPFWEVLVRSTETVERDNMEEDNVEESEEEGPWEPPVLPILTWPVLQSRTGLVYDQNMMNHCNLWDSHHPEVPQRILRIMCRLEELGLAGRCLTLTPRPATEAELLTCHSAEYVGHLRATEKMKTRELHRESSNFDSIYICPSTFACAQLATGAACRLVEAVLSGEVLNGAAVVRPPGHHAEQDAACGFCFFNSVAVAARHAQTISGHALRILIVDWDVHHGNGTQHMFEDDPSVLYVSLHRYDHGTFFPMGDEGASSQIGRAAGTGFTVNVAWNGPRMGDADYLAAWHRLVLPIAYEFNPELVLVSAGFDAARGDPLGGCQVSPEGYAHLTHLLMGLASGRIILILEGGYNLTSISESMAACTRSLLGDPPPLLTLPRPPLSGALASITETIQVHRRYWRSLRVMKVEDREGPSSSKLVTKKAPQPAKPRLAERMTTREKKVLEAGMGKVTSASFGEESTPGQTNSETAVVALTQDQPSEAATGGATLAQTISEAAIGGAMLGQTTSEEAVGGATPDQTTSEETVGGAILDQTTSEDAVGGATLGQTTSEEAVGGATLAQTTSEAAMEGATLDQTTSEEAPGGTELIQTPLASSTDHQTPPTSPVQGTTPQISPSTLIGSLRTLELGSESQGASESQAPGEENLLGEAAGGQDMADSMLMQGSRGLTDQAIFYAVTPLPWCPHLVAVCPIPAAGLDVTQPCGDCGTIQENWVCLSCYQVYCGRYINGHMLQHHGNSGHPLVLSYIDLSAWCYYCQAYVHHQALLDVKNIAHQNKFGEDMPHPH

[3] = target: T2, Histone deacetylase 1 (Homo sapiens, UniProt Q13547); test: Inhibition of human recombinant C-terminal FLAG-tagged HDAC1 expressed in baculovirus by fluorimetry
[4] = target: Histone deacetylase 4 (Homo sapiens) (UniProt P56524); test: Inhibition of human recombinant N-terminal histidine-tagged HDAC4 expressed in baculovirus by fluorimetry
[5] = target: T3, Histone deacetylase 7 (Homo sapiens) (UniProt Q8WUI4); test: Inhibition of human recombinant N-terminal histidine-tagged HDAC7 expressed in baculovirus by fluorimetry
T3 sequence (whole entry): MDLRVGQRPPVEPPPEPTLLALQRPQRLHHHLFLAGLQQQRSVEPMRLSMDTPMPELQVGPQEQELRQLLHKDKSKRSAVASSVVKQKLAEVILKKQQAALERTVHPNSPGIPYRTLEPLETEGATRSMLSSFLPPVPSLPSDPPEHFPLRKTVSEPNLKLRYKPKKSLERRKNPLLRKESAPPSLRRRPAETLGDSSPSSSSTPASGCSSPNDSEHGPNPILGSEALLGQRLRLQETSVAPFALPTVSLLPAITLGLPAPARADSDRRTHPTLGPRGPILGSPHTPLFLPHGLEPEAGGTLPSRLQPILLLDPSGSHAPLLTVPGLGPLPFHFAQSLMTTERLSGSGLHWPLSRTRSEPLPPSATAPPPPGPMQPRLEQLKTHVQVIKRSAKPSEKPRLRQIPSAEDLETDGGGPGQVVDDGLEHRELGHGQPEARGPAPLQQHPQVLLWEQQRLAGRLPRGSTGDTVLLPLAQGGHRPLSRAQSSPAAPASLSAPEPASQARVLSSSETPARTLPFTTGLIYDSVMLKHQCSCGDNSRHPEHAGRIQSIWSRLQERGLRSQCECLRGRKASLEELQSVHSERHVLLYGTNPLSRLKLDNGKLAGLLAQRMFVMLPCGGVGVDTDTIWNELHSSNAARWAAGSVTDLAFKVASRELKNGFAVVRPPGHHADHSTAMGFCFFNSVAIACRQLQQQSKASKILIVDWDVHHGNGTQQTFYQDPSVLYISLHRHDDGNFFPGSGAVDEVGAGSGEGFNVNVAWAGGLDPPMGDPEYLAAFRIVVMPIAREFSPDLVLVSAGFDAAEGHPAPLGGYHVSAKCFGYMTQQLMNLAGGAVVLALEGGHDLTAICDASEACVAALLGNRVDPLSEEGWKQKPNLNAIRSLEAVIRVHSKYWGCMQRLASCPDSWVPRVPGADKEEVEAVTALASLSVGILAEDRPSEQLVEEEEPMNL

[6] = target: T4, Histone deacetylase 8 (Homo sapiens) (UniProt Q9BY41); test: Inhibition of human recombinant N-terminal histidine-tagged HDAC8 expressed in baculovirus by fluorimetry
T4 sequence (whole entry): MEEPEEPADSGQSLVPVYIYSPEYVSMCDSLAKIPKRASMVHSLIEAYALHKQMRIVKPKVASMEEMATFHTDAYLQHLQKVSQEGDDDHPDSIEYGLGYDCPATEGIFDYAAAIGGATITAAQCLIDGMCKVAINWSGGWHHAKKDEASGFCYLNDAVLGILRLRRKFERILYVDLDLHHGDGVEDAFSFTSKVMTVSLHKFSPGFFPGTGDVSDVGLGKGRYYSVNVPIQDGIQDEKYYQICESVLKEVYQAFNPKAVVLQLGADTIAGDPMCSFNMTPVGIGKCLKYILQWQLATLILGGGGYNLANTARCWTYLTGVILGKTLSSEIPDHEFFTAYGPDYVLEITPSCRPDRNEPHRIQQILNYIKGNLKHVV

[7] = target: Histone deacetylase 3 (Homo sapiens) (UniProt O15379); test: Inhibition of human recombinant C-terminal FLAG-tagged HDAC3 expressed in baculovirus by fluorimetry
[8] = target: Histone deacetylase 5 (Homo sapiens) (UniProt Q9UQL6); test: Inhibition of human recombinant N-terminal histidine-tagged HDAC5 expressed in baculovirus by fluorimetry
[9] = tested on: T-24; test: Induction of histone H3 acetylation in human T24 cells after 3 hrs by ELISA; type: functional, cell-based; conditions: T-24, 3 h
[10] = tested on: T-24; test: Induction of alpha tubulin acetylation in human T24 cells after 3 hrs by ELISA; type: functional, cell-based; conditions: T-24, 3 h
[11] = target: T2, Histone deacetylase 1; test: Inhibition of HDAC1 in human 293T cells after 16 hrs by fluorimetry; type: cell-based

Histone deacetylase 2 (Homo sapiens), sequence (Q92769 whole entry): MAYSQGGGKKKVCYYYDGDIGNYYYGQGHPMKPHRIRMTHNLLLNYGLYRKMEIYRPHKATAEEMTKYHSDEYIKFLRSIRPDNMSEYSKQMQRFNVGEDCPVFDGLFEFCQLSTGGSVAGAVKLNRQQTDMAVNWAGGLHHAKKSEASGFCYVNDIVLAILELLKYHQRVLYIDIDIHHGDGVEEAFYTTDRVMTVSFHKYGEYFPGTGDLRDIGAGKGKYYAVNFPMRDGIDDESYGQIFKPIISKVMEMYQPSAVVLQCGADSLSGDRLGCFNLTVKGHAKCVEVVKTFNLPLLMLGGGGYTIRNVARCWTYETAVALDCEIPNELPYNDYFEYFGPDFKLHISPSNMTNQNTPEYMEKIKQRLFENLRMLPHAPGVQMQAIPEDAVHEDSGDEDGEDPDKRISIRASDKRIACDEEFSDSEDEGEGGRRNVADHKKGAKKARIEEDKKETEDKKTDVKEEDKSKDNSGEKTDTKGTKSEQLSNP
T2 sequence (Q13547 whole entry): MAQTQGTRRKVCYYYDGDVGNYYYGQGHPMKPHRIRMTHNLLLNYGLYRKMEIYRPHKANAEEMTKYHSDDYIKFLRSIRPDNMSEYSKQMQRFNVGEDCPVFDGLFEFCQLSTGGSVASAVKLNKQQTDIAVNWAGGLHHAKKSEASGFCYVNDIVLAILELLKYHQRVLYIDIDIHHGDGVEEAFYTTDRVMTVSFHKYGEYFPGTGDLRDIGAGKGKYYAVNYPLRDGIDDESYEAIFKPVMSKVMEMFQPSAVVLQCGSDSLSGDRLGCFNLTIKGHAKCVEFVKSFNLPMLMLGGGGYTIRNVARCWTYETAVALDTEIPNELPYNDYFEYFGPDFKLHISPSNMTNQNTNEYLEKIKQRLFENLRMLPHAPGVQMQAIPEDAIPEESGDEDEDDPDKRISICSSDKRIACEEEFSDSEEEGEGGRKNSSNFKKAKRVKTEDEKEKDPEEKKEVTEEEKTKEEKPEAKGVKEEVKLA
Histone deacetylase 4 (Homo sapiens), sequence (P56524 whole entry): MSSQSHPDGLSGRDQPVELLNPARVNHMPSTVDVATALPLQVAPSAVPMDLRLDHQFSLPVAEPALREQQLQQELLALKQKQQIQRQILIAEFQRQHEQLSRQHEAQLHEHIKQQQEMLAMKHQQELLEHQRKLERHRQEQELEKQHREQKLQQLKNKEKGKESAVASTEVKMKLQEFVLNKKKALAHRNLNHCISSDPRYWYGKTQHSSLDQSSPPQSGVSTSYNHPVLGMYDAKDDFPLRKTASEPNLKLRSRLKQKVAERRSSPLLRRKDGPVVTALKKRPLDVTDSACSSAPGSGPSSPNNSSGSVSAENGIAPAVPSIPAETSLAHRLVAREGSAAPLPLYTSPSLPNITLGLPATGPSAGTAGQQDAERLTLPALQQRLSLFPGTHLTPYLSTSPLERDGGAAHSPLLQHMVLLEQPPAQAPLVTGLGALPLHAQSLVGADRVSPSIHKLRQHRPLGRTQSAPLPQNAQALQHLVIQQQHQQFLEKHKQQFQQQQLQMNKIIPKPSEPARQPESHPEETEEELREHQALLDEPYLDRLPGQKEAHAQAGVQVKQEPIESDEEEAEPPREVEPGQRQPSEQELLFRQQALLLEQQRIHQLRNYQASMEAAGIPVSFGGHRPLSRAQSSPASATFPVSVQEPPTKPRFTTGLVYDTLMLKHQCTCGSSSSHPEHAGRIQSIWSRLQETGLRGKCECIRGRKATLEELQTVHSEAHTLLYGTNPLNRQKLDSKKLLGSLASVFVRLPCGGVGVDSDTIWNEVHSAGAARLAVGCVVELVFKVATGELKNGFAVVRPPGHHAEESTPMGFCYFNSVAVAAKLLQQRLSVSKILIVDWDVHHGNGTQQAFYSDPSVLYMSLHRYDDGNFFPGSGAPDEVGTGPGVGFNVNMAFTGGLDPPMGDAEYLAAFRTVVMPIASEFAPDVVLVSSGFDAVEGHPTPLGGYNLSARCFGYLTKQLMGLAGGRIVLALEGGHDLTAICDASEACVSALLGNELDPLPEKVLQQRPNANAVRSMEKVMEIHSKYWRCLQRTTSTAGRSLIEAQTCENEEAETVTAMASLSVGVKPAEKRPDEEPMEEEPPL
Histone deacetylase 3 (Homo sapiens), sequence (O15379 whole entry): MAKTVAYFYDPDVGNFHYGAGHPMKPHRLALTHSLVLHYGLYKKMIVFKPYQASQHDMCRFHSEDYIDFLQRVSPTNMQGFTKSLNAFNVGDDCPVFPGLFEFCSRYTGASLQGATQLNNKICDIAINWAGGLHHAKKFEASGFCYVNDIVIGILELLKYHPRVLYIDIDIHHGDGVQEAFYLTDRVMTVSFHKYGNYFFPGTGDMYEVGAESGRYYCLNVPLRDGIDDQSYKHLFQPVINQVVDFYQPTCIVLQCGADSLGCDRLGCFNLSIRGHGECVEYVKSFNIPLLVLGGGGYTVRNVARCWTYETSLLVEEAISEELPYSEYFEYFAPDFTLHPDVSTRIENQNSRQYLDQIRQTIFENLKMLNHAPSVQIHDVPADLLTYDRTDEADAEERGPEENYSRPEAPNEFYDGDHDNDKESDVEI
Histone deacetylase 5 (Homo sapiens), sequence (Q9UQL6 whole entry): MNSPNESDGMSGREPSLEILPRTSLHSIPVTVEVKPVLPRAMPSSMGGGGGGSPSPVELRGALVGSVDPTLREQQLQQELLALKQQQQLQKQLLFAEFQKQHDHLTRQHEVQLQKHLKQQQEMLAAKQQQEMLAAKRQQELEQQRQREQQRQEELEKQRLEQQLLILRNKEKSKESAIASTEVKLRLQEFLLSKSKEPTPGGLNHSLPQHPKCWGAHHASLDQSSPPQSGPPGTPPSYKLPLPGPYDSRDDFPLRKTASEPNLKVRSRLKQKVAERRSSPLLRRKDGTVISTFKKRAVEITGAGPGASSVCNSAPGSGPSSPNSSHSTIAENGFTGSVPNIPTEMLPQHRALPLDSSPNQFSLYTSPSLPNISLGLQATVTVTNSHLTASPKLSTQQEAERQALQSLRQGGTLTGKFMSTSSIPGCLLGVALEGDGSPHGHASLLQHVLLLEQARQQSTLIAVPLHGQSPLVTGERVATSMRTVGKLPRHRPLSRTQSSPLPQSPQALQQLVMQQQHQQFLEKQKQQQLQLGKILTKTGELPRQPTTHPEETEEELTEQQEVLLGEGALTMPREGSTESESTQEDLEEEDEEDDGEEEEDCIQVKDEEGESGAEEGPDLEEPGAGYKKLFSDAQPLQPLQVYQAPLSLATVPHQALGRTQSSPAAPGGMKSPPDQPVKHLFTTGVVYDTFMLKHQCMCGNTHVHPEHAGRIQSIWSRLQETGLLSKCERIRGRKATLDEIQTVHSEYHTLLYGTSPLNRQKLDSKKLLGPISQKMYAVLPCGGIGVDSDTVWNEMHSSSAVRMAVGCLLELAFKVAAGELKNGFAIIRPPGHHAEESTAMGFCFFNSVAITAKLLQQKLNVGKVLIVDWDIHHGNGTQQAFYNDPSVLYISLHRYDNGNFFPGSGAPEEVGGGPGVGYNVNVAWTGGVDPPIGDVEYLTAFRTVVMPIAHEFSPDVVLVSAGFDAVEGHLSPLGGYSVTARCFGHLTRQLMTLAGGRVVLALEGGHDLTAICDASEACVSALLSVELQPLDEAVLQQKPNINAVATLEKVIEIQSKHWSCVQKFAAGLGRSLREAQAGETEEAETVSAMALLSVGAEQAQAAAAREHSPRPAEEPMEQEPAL

| Compound | Activity [1] | IC50 [2] [nM] | IC50 [3] [nM] | Activity [4] | Activity [5] | Activity [6] | Activity [7] | Activity [8] | EC50 [9] [nM] | EC50 [10] [nM] | IC50 [11] [nM] |
| --- | --- | --- | --- | --- | --- | --- | --- | --- | --- | --- | --- |
| NS(=O)(=O)NCCCCCC(=O)Nc1cccc2cccnc12 | inactive | 390 | > 10000 |  |  |  |  |  |  |  |  |
| O=C(CCCCCCC(=O)Nc1cccc(-c2ccccc2)c1)NO |  | 9 | 9 |  |  |  |  |  |  |  |  |
| NS(=O)(=O)NCCCCCC(=O)Nc1cnc2ccccc2c1 | inactive | 710 | > 10000 |  |  |  |  |  |  |  |  |
| Nc1ccccc1NC(=O)CCCCCCC(=O)Nc1cccc(-c2ccccc2)c1 |  | > 50000 | 490 |  |  |  |  |  |  |  |  |
| NS(=O)(=O)NCCCCCC(=O)Nc1ccccc1 |  | 1500 | > 10000 |  |  |  |  |  |  |  |  |
| NS(=O)(=O)NCCCCCC(=O)Nc1cccc(-c2ccccc2)c1 |  | 1100 | > 10000 | inactive | inactive | inactive | inactive | inactive |  |  |  |
| NS(=O)(=O)OCCCCCC(=O)Nc1cccc(-c2ccccc2)c1 |  | > 10000 | > 10000 | inactive | inactive | inactive | inactive | inactive |  |  |  |
| COc1cc(NC(=O)[C@H](CCCCNS(N)(=O)=O)NC(=O)OCc2ccccc2)c2ncccc2c1 |  | 60 | 460 |  |  |  |  |  | 350 | 200 | 1800 |
| NS(=O)(=O)NCCCCCC(=O)Nc1nc(-c2ccccc2)cs1 | inactive | 900 | > 10000 |  |  |  |  |  | 20000 | 3500 | > 50000 |

The next lines start with the values.

| Activity [1] | IC50 [2] [nM] | IC50 [3] [nM] | Activity [4] | Activity [5] | Activity [6] | Activity [7] | Activity [8] | EC50 [9] [nM] | EC50 [10] [nM] | IC50 [11] [nM] | Compound |
| --- | --- | --- | --- | --- | --- | --- | --- | --- | --- | --- | --- |
| inactive | 490 | > 10000 |  |  |  |  |  |  |  |  | NS(=O)(=O)NCCCCCC(=O)Nc1ccc2ncccc2c1 |
|  | > 10000 | > 10000 | inactive | inactive | inactive | inactive | inactive |  |  |  | NS(=O)(=O)NCCCCC(=O)Nc1cccc(-c2ccccc2)c1 |
|  | > 10000 | > 10000 | inactive | inactive | inactive | inactive | inactive |  |  |  | CN(CCCCCC(=O)Nc1cccc(-c2ccccc2)c1)S(N)(=O)=O |
|  | > 10000 | > 10000 | inactive | inactive | inactive | inactive | inactive |  |  |  | NS(=O)(=O)NCCCCCCC(=O)Nc1cccc(-c2ccccc2)c1 |
| inactive | 440 | > 10000 |  |  |  |  |  | > 25000 | 1000 | > 50000 | COc1cc(NC(=O)CCCCCNS(N)(=O)=O)c2ncccc2c1 |
|  | > 10000 | > 10000 | inactive | inactive | inactive | inactive | inactive |  |  |  | CC(=O)NS(=O)(=O)NCCCCCC(=O)Nc1cccc(-c2ccccc2)c1 |
|  | > 10000 | > 10000 | inactive | inactive | inactive | inactive | inactive |  |  |  | NS(=O)(=O)NC(=O)CCCCCC(=O)Nc1cccc(-c2ccccc2)c1 |
|  | > 10000 | > 10000 | inactive | inactive | inactive | inactive | inactive |  |  |  | CN(C)S(=O)(=O)NCCCCCC(=O)Nc1cccc(-c2ccccc2)c1 |
|  | > 10000 | > 10000 | inactive | inactive | inactive | inactive | inactive |  |  |  | CNS(=O)(=O)NCCCCCC(=O)Nc1cccc(-c2ccccc2)c1 |
|  | 180 | 160 |  |  |  |  |  | 700 | 600 | 2300 | NS(=O)(=O)NCCCC[C@H](NC(=O)OCc1ccccc1)C(=O)Nc1nc(-c2ccccc2)cs1 |
